Like-named read-outs stand apart in the source and are kept apart here.
Columns and labels:
[1] = tested on: B. subtilis and P. chrysogenum; assay: Minimal inhibitory concentration of disinfectants in E. maxima oocysts spiked with B. subtilis and P. chrysogenum; assay type: cell-based, Bacillus subtilis and Penicillium chrysogenum
Description: (§1) In this example, additional disinfectant compounds were tested for their ability to inhibit microbial growth in Eimeria oocyst samples as compared to formalin. E. maxima oocysts were spiked with B. subtilis and P. chrysogenum, and the minimal inhibitory concentrations of several disinfectants were determined. The disinfectants were then added to E. maxima oocysts and the oocysts were stored at 2-7° C. for 6 months. The oocysts were assayed for viability and the decrease in viability due to the disinfectant was calculated by comparison to the same lot of oocysts stored in 0.5×PBS only. Exemplary results are summarized below in Table 5.

[2] = tested on: E. maxima oocysts; assay: Effect of disinfectants at minimal inhibitory concentration on E. maxima oocyst viability; assay type: cell-based, Eimeria maxima
Description: as §1

[3] = tested on: E. acervulina oocysts; conditions: storage at 2-7° C.
Description: (§2) The effect of formalin on oocyst viability was investigated using oocyst lots of each Eimeria species (E. acervulina, E. maxima and E. tenella) and on vaccine. Viability was determined initially prior to the addition of formalin, and then after 1 year of storage at 2-7° C.

[4] = tested on: E. maxima oocysts; conditions: storage at 2-7° C.
Description: as §2

[5] = tested on: E. tenella oocysts; conditions: storage at 2-7° C.
Description: as §2

[6] = tested on: Vaccine Serial (E. acervulina, E. maxima and E. tenella oocysts); conditions: storage at 2-7° C.
[7] = tested on: Eimeria maxima oocysts; conditions: 0.675% formalin; stored 2 weeks at 2-7° C.; compared to same lot of oocysts stored with 0% formalin
[8] = tested on: Eimeria acervulina oocysts; conditions: 0.1% formalin; stored 4 months at 2-7° C.; compared to same lot of oocysts stored with 0% formalin

## CC(C)=CCCC(C)=CC=O [Citral]
[1]
  Minimal Inhibitory Concentration: 0.0125%
[2]; disinfectant at minimal inhibitory concentration, 6 months of storage at 2-7 C., compared to same lot stored with 0% disinfectant (0.5×PBS only)
  Decrease in Viability: 24%

## C=O [Formalin, formaldehyde]
[3]; formalin concentration 0.010
  % Viable Oocysts after Storage for 12 Months, E. acervulina 12 mo: 59%
[3]; formalin concentration 0.025
  % Viable Oocysts after Storage for 12 Months, E. acervulina 12 mo: 27%
[4]; formalin concentration 0.010
  % Viable Oocysts after Storage for 12 Months, E. maxima 12 mo: 47%
[4]; formalin concentration 0.025
  % Viable Oocysts after Storage for 12 Months, E. maxima 12 mo: 41%
[5]; formalin concentration 0.010
  % Viable Oocysts after Storage for 12 Months, E. tenella 12 mo: 95%
[5]; formalin concentration 0.025
  % Viable Oocysts after Storage for 12 Months, E. tenella 12 mo: 86%
[6]; formalin concentration 0.0028
  % Viable Oocysts after Storage for 12 Months, Vaccine Serial 12 mo: 83%
[6]; formalin concentration 0.0071
  % Viable Oocysts after Storage for 12 Months, Vaccine Serial 12 mo: 84%
[7]
  Decrease in Viability: 49%
[8]
  Decrease in Viability: 37%

## Cc1ccc(C(C)C)c(O)c1 [Thymol]
[1]
  Minimal Inhibitory Concentration: 0.0063%
[2]
  Decrease in Viability: 15%

Reference: patent US11692164B2, “Antibiotic-free compositions for the prevention or control of coccidiosis” (Huvepharma Inc., priority 2017, dated 2023)
